How the values were obtained:
female Balb/c mice = assay: Imiquimod-induced psoriasis in Balb/c mice, PASI scoring; assay type: in vivo, mouse
Protocol: The study is performed on 40 female Balb/c mice, weighing roughly 18-20 g and randomized by weight into 5 groups (n=8) as function of the treatments, under controlled temperature (24±2° C.) and humidity (50±20%) conditions and with a 12-hour reversed light cycle (light from 20:00 to 08:00) (food and water ad libitum).
The compounds to be tested are as follows: • Excipial® neutral ointment (control) • PAT1657 (octyl-isochlorogenamide A) incorporated at 1.33% or 2.67% by mass in Excipial® ointment • Aldara® cream containing 5% imiquimod, an inducer of psoriasis • Dermoval® cream containing 0.05% clobetasol propionate and used for topical treatment of psoriasis (reference product)
The treatment groups are distributed as follows: • Group 1: no induction of psoriasis but cutaneous application of neutral ointment from day 1 to day 10 and treatment with Excipial® neutral ointment from day 7 to day 10 (negative control) (EP/EP); • Group 2: induction of psoriasis by cutaneous application of Aldara® cream containing imiquimod from day 1 to day 10 and treatment with Excipial® neutral ointment from day 7 to day 10 (positive control) (ALD/EP); • Group 3: induction of psoriasis by cutaneous application of Aldara® cream containing imiquimod from day 1 to day 10 and treatment with neutral ointment containing 1.33% compound PAT1657 from day 7 to day 10 (ALD/PAT1657-1.33%); • Group 4: induction of psoriasis by cutaneous application of Aldara® cream containing imiquimod from day 1 to day 10 and treatment with neutral ointment containing 2.67% compound PAT1657 from day 7 to day 10 (ALD/PAT1657-2.67%); • Group 5: induction of psoriasis by cutaneous application of Aldara® cream containing imiquimod from day 1 to day 10 and treatment with Dermoval® cream from day 7 to day 10 (ALD/Dermoval®). Induction and Maintenance of Psoriasis
To perform the induction of psoriasis, it was necessary to remove the hair from the backs of the animals by shaving and plucking to have direct access to the skin tissue. Psoriasis was induced in all mice in groups 2 to 5 by daily cutaneous application for 10 days, from day 1 to day 10, of roughly 70 mg of Aldara® cream. The cream was applied to the shaved backs of the mice with a silk brush. For the mice in group 1, daily cutaneous application of Excipial® neutral ointment was carried out under the same conditions: roughly 70 mg was applied for 10 days, from day 1 to day 10, in the morning using a silk brush.
The ointments containing compound PAT1657 at the two doses to be tested, Excipial® neutral ointment and Dermoval® cream, were administered by cutaneous applications for 4 days, from day 7 to day 10, on the backs of the mice in the psoriasis induction region. For each application, roughly 100 mg of ointment or cream was applied with a silk brush, at least 4 hours after application of Aldara® cream or Excipial® neutral ointment for induction or not of psoriasis.
The psoriasis area and severity index (PASI) was calculated daily throughout the experiment from day 1 to day 11, based on the following three parameters: • Presence of erythema, i.e. skin redness, in the psoriasis induction region, scored as follows: 0=no or no further erythema; 1=mild erythema; 2=moderate erythema; 3=severe erythema; 4=very severe erythema. • Degree of induration, i.e. skin hardening and thickening, in the psoriasis induction region, scored as follows: 0=no or no further induration; 1=mild induration; 2=moderate induration; 3=severe induration; 4=very severe induration. • Degree of desquamation, i.e. presence of plaques on the skin surface, in the psoriasis induction region, scored as follows: 0=no or no further desquamation; 1=mild desquamation; 2=moderate desquamation; 3=severe desquamation; 4=very severe desquamation.
The psoriasis area and severity index is the sum of the scores for these three parameters. […]

TNF-α = TNF-α production by NHEKs in the inflammatory state (PMA + calcium ionophore, 0.06 mM Ca2+), ELISA; assay type: cell-based, human; conditions: PMA + calcium ionophore A23187 24 h, compounds 50 μM, dexamethasone 10 μM, relative to induced control
Protocol: The study was carried out on Normal Human Epidermal Keratinocytes (NHEKs) (Lonza, CC-2507, origin: foreskin) in monolayer culture in Epilife medium (Invitrogen, M-EPI-500-A) containing the components of the Human Keratinocyte Growth Supplement (HKGS) mixture (Invitrogen, S-001-K) added separately, except hydrocortisone having anti-inflammatory properties.
For the quantification of IL-8 and PGE2, the inflammatory state of the NHEKs in culture was induced by treatment with PMA (phorbol myristate acetate/10 ng/ml/H2O) for 24 h. Induction of IL-6 was achieved by treatment with PMA (10 ng/ml/H2O) combined with calcium ionophore A23187 (2 μM/DMSO) in medium containing calcium at a concentration of 0.8 mM. […]
Quantification of the various inflammatory mediators was carried out with specific kits, based on a standard curve, according to the instructions provided by the kits' suppliers, R&D Systems and Cayman Chemical.
Before induction of the inflammatory state, the NHEKs were treated with the compounds and reference molecules for 2 h. The inflammatory state was then induced according to the conditions described in the methodology section, the culture supernatants were collected, and the various inflammatory mediators were quantified by the ELISA technique. […]

[1] = day 8, 1.33% in ointment, vs ALD/EP group, p=0.001
[2] = day 10, 1.33% in ointment, vs ALD/EP group, p=0.001
[3] = day 10, 2.67% in ointment, vs ALD/EP group, p=0.001
[4] = day 11, 1.33% in ointment, vs ALD/EP group, p=0.001
[5] = day 11, 2.67% in ointment, vs ALD/EP group, p=0.001

## CCCCCCCCNC(=O)[C@]1(O)C[C@@H](OC(=O)/C=C/c2ccc(O)c(O)c2)[C@@H](O)[C@H](OC(=O)/C=C/c2ccc(O)c(O)c2)C1 [PAT1657, (2E,2′E)-((1R,2S,3R,5S)-2,5-dihydroxy-5-(octylcarbamoyl)cyclohexane-1,3-diyl) bis(3-(3,4-dihydroxyphenyl)acrylate)]
Female Balb/c mice; [1]
  mean psoriasis area and severity index (PASI): significantly lower
  mean score for degree of induration in the psoriasis induction region: significantly lower
  mean score for presence of erythema in the psoriasis induction region: significantly lower
Female Balb/c mice; day 8, 1.33% in ointment, vs ALD/EP group, p=0.007
  mean score for degree of desquamation in the psoriasis induction region: significantly lower
Female Balb/c mice; day 8, 2.67% in ointment, vs ALD/EP group, p=0.001
  mean psoriasis area and severity index (PASI): significantly lower
Female Balb/c mice; day 8, 2.67% in ointment, vs ALD/EP group, p=0.004
  mean score for degree of induration in the psoriasis induction region: significantly lower
Female Balb/c mice; day 8, 2.67% in ointment, vs ALD/EP group, p=0.006
  mean score for degree of desquamation in the psoriasis induction region: significantly lower
Female Balb/c mice; day 8, 2.67% in ointment, vs ALD/EP group, p=0.007
  mean score for presence of erythema in the psoriasis induction region: significantly lower
Female Balb/c mice; day 9, day 10 and day 11, 1.33% in ointment, vs ALD/EP group, p=0.001
  mean psoriasis area and severity index (PASI): significantly lower
Female Balb/c mice; day 9, day 10 and day 11, 2.67% in ointment, vs ALD/EP group, p=0.001
  mean psoriasis area and severity index (PASI): significantly lower
Female Balb/c mice; day 9, 1.33% in ointment, vs ALD/Dermoval group, p=0.015
  mean score for degree of induration in the psoriasis induction region: significantly higher
Female Balb/c mice; day 9, 1.33% in ointment, vs ALD/EP group, p=0.001
  mean score for degree of induration in the psoriasis induction region: significantly lower
Female Balb/c mice; day 9, 1.33% in ointment, vs ALD/EP group, p=0.002
  mean score for presence of erythema in the psoriasis induction region: significantly lower
Female Balb/c mice; day 9, 2.67% in ointment, vs ALD/EP group, p=0.001
  mean score for degree of induration in the psoriasis induction region: significantly lower
Female Balb/c mice; day 9, 2.67% in ointment, vs ALD/EP group, p=0.002
  mean score for presence of erythema in the psoriasis induction region: significantly lower
Female Balb/c mice; day 9 and day 10, 1.33% in ointment, vs ALD/EP group, p=0.001
  mean score for degree of desquamation in the psoriasis induction region: significantly lower
Female Balb/c mice; day 9 and day 10, 2.67% in ointment, vs ALD/EP group, p=0.001
  mean score for degree of desquamation in the psoriasis induction region: significantly lower
Female Balb/c mice; day 10, 1.33% in ointment, vs ALD/Dermoval group, p=0.025
  mean score for degree of induration in the psoriasis induction region: significantly higher
Female Balb/c mice; day 10, 1.33% in ointment, vs ALD/Dermoval group, p=0.037
  mean score for presence of erythema in the psoriasis induction region: significantly lower
Female Balb/c mice; [2]
  mean score for degree of induration in the psoriasis induction region: significantly lower
  mean score for presence of erythema in the psoriasis induction region: significantly lower
Female Balb/c mice; day 10, 2.67% in ointment, vs ALD/Dermoval group, p=0.025
  mean score for degree of induration in the psoriasis induction region: significantly higher
Female Balb/c mice; day 10, 2.67% in ointment, vs ALD/Dermoval group, p=0.079
  mean score for presence of erythema in the psoriasis induction region: tendency to be significantly lower
Female Balb/c mice; [3]
  mean score for degree of induration in the psoriasis induction region: significantly lower
  mean score for presence of erythema in the psoriasis induction region: significantly lower
Female Balb/c mice; day 11, 1.33% in ointment, vs ALD/Dermoval group
  mean score for degree of desquamation in the psoriasis induction region: significantly higher
Female Balb/c mice; day 11, 1.33% in ointment, vs ALD/Dermoval group, p=0.001
  mean score for presence of erythema in the psoriasis induction region: significantly lower
Female Balb/c mice; day 11, 1.33% in ointment, vs ALD/Dermoval group, p=0.063
  mean score for degree of induration in the psoriasis induction region: tendency to be significantly higher
Female Balb/c mice; [4]
  mean score for degree of desquamation in the psoriasis induction region: significantly lower
  mean score for degree of induration in the psoriasis induction region: significantly lower
  mean score for presence of erythema in the psoriasis induction region: significantly lower
Female Balb/c mice; day 11, 2.67% in ointment, vs ALD/Dermoval group, p=0.014
  mean score for presence of erythema in the psoriasis induction region: significantly lower
Female Balb/c mice; day 11, 2.67% in ointment, vs ALD/Dermoval group, p=0.059
  mean score for degree of desquamation in the psoriasis induction region: tended to be significantly higher
Female Balb/c mice; [5]
  mean score for degree of desquamation in the psoriasis induction region: significantly lower
  mean score for degree of induration in the psoriasis induction region: significantly lower
  mean score for presence of erythema in the psoriasis induction region: significantly lower
TNF-α
  TNF-α production: most marked effects and are more effective than dexamethasone itself
